This passage reports bioavailability, clearance and Cmax results from ChEMBL document CHEMBL1155332 (Bioorg Med Chem Lett, 2009).

Common to all, as to assay type: ADME, organism-based
The nature of data set [1]: Bioavailability in […] rat. The conditions noted are these: in vivo.
Data set [2] can be described thus: Clearance in iv dosed rat. The conditions noted are these: in vivo.
Data set [3] can be described thus: Cmax in squirrel monkey at 10 mg/kg. The arrangement: dose 10 mg/kg. The conditions noted are these: saimiri, in vivo.
The nature of data set [4]: Cmax in squirrel monkey at 2 mg/kg. Set-up: dose 2 mg/kg. To be noted: saimiri, in vivo.
Data set [5] can be described thus: Cmax in squirrel monkey at 0.4 mg/kg. The arrangement: dose 0.4 mg/kg. The conditions noted are these: saimiri, in vivo.

One may read the bioavailability as the share of a dose that reaches the circulation, judged against a reference dose that is usually intravenous. As usually defined, the clearance is the volume of plasma or blood freed of the substance per unit of time. As for `CC(C)(c1cc(-c2cccc(CC(F)(c3ccc(S(C)(=O)=O)cc3)C(O)(C3CC3)C3CC3)c2)c2ncccc2c1)S(C)(=O)=O.CCl` (centres undefined), the bioavailability in data set [1] was found to be 99%. The molecule further came in with a clearance in data set [2] of 8 mL/min/kg.

Usually Cmax stands for the maximum level reached in the sampled fluid or tissue. As for `Cc1noc(/C(=C/c2cccc(-c3cc(C(C)(C)S(C)(=O)=O)cc4cccnc34)c2)c2ccc(S(C)(=O)=O)cc2)n1`, in data set [3], the Cmax is 3800 nM. The bioavailability in data set [1] stood at 100%. The molecule further had a clearance in data set [2] of 7 mL/min/kg.

As to `CC(C)(c1cc(-c2cccc(CC(CO)c3ccc(S(C)(=O)=O)cc3)c2)c2ncccc2c1)S(C)(=O)=O` (centres undefined), the bioavailability in data set [1] was found to be 9%. Further, the clearance in data set [2] turned out to be 51 mL/min/kg.

`COP(=O)(OC)C(Cc1cccc(-c2cc(C(C)(C)S(C)(=O)=O)cc3cccnc23)c1)c1ccc(S(C)(=O)=O)cc1` (centres undefined) returned a bioavailability in data set [1] of 3%. Moreover, the clearance in data set [2] came to 48 mL/min/kg.

The molecule `COP(=O)(OC)C(F)(Cc1cccc(-c2cc(C(C)(C)S(C)(=O)=O)cc3cccnc23)c1)c1ccc(S(C)(=O)=O)cc1` (centres undefined) registered a bioavailability in data set [1] of 51%. In data set [2], this molecule returned a clearance of 177 mL/min/kg.

Take `CC(C)(c1cc(-c2cccc(CC(c3ccc(S(C)(=O)=O)cc3)S(C)(=O)=O)c2)c2ncccc2c1)S(C)(=O)=O` (centres undefined): the bioavailability in data set [1] worked out at 1%. The molecule also returned a clearance in data set [2] of 76 mL/min/kg.

As to `CC(C)(O)C(F)(Cc1cccc(-c2cc(C(C)(C)S(C)(=O)=O)cc3cccnc23)c1)c1ccc(S(C)(=O)=O)cc1` (centres undefined), the bioavailability in data set [1] stood at 84%. In addition, the clearance in data set [2] turned out to be 17 mL/min/kg.

As to `CC(C)(c1cc(-c2cccc(CC(F)(c3ccc(S(C)(=O)=O)cc3)S(C)(=O)=O)c2)c2ncccc2c1)S(C)(=O)=O` (centres undefined), in data set [1], the bioavailability was found to be 53%. Besides, the clearance in data set [2] was determined as 9 mL/min/kg.

In data set [1], `CC(C)(O)C(Cc1cccc(-c2cc(C(C)(C)S(C)(=O)=O)cc3cccnc23)c1)c1ccc(S(C)(=O)=O)cc1` (centres undefined) came in with a bioavailability of 21%. Also, the clearance in data set [2] amounted to 50 mL/min/kg.

`CC(C)(c1cc(-c2cccc(CC(F)(c3ccc(S(C)(=O)=O)cc3)C(O)(C3CC3)C3CC3)c2)c2ncccc2c1)S(C)(=O)=O.Cl` (single isomer, unassigned): the bioavailability in data set [1] was determined as 69%. For the same molecule, in data set [2], the clearance was 11 mL/min/kg.

`CC(C)(c1cc(-c2cccc(CC(F)(c3ccc(S(C)(=O)=O)cc3)S(=O)(=O)C3CC3)c2)c2ncccc2c1)S(C)(=O)=O.Cl` (single isomer, unassigned) showed a bioavailability in data set [1] of 36%. Further, the clearance in data set [2] is 9 mL/min/kg.

Molecule `CC(C)(c1cc(-c2cccc(CC(F)(c3ccc(S(C)(=O)=O)cc3)S(=O)(=O)C3CC3)c2)c2ncccc2c1)S(C)(=O)=O` (single isomer, unassigned; Enantio B) yielded a Cmax in data set [4] of 1900 nM. In data set [1], the bioavailability was 99%. Moreover, the clearance in data set [2] is 3 mL/min/kg.

With `CC(C)(c1cc(-c2cccc(CC(F)(c3ccc(S(C)(=O)=O)cc3)C(O)(C3CC3)C3CC3)c2)c2ncccc2c1)S(C)(=O)=O` (single isomer, unassigned; Enantio B), the peak level in data set [5] (Cmax) was 100 nM. In data set [1], the bioavailability came out at 99%. Further, the clearance in data set [2] amounted to 38 mL/min/kg.
